Data: US20060069132A1, “Azolecarboxamide herbicides” (priority 2004, published 2006)

Experiments:
[1] = tested on: bearded sprangletop; test: Test D flooded paddy test; format: in vivo, Leptochloa fascicularis; details: 21 days, scale 0 to 100
Text: (§1) Three plastic pots (ca. 16-cm diameter) per rate were partially filled with sterilized Tama silt loam soil comprising a 35:50:15 ratio of sand, silt and clay and 2.6% organic matter. Separate plantings for each of the three pots were as follows. Seeds from the U.S. of ducksalad (Heteranthera limosa (Sw.) Willd.), smallflower umbrella sedge (Cyperus difformis L.) and purple redstem (Ammannia coccinea Rottb.), were planted into one 16-cm pot for each rate. Seeds from the U.S. of rice flatsedge (Cyperus iria L.), bearded sprangletop (Leptochloa fascicularis (Lam.) Gray), one stand of 9 or 10 water seeded rice seedlings (Oryza sativa L. cv. ‘Japonica—M202’), and one stand of 6 transplanted rice seedlings (Oryza sativa L. cv. ‘Japonica—M202’) were planted into one 16-cm pot for each rate. Seeds from the U.S. of barnyardgrass (Echinochloa crus-galli (L.) Beauv.), late watergrass (Echinochloa oryzicola Vasinger), early watergrass (Echinochloa oryzoides (Ard.) Fritsch) and junglerice (Echinochloa colona (L.) Link) were planted into one 16-cm pot for each rate. Plantings were sequential so that crop and weed species were at the 2.0 to 2.5-leaf stage at time of treatment.
(§2) Potted plants were grown in a greenhouse with day/night temperature settings of 29.5/26.7° C., and supplemental balanced lighting was provided to maintain a 16-hour photoperiod. Test pots were maintained in the greenhouse until test completion.
(§3) At time of treatment, test pots were flooded to 3 cm above the soil surface, treated by application of test compounds directly to the paddy water, and then maintained at that water depth for the duration of the test. Effects of treatments on rice and weeds were visually evaluated by comparison to untreated controls after 21 days. Plant response ratings are reported on a 0 to 100 scale; where 0 is no effect and 100 is complete control. A dash (-) response means no test result.

[2] = tested on: water seeded rice seedlings; test: Test D flooded paddy test; format: in vivo, Oryza sativa; details: 21 days, scale 0 to 100
Text: as §1, §2, §3

[3] = tested on: transplanted rice seedlings; test: Test D flooded paddy test; format: in vivo, Oryza sativa; details: 21 days, scale 0 to 100
Text: as §1, §2, §3

[4] = tested on: rice flatsedge; test: Test D flooded paddy test; format: in vivo, Cyperus iria; details: 21 days, scale 0 to 100
Text: as §1, §2, §3

[5] = tested on: ducksalad; test: Test D flooded paddy test; format: in vivo, Heteranthera limosa; details: 21 days, scale 0 to 100
Text: as §1, §2, §3

[6] = tested on: early watergrass; test: Test D flooded paddy test; format: in vivo, Echinochloa oryzoides; details: 21 days, scale 0 to 100
Text: as §1, §2, §3

[7] = tested on: corn (maize) cv. Pioneer 33G26; test: Test G safening on corn by naphthalic anhydride seed treatment, preemergence; format: in vivo, Zea mays
Text: This test evaluated the safening of compounds of the invention on corn (maize; Zea mays L.) cv. ‘Pioneer 33G26’ by seed treatment with naphthalic anhydride (1,8-naphthalic anhydride). All corn seed had been first treated with fludioxonil and metaxyl applied at the manufacturer's recommended rate as per the Pioneer 33G26 label. Some of the corn seed were subsequently also treated with naphthalic anhydride as a 1% by weight seed dressing. The corn seed were planted in pots containing pasteurized Sassafras sandy loam soil, and then treatments were applied preemergence the same day. Treatments were applied by spraying the test compounds formulated in a non-phytotoxic solvent mixture, using a flat fan nozzle and a spray volume of 280 L/ha. The treatments were triply replicated and the results subsequently averaged. The pots were placed on a greenhouse bench using a complete randomized block design except for the first replicate, which was unrandomized. The plants were grown in the greenhouse and watered as needed with a dilute nutrient solution containing 200 ppm of N. Illumination was daylight supplemented by artificial sources to maintaining a photoperiod of 16 hours. The temperature was maintained at 28±2° C. during the day and 23±2° C. at night. The plant response was visually rated 25 days after treatment in comparison to untreated controls using a scale of 0 to 100, with 0 representing no effect and 100 representing complete plant death.

[8] = tested on: wheat cv. Retical; test: Test H safening on wheat by naphthalic anhydride seed treatment, pre-/postemergence; format: in vivo, Triticum aestivum; design: key to Response of wheat, Without naphthalic anhydride seed treatment: 0 = no effect, 100 = complete plant death, vs untreated control; details: preemergence
Protocol: This test evaluated the safening of compounds of the invention on wheat (Triticum aestivumL.) cv. ‘Retical’ by seed treatment with naphthalic anhydride. Some of the wheat seed was treated with napthalic anhydride as a 1% by weight seed dressing. The wheat seed were planted in pots containing pasteurized Sassafras sandy loam soil. For postemergence testing the plants were grown 8 days to the 2-leaf stage at time of treatment. Preemergence treatments were applied the same day that the seeds were planted. Treatments were applied by spraying the test compounds formulated in a non-phytotoxic solvent mixture, using a flat fan nozzle and a spray volume of 280 L/ha. The preemergence treatments were triply replicated and the results subsequently averaged. The pots were placed on a growth chamber bench using a complete randomized block design for the preemergence test except for the first replicate, which was unrandomized. The plants were grown in the growth chamber and watered as needed with a dilute nutrient solution containing 200 ppm of N. Illumination was provided by fluorescent lamps giving 200-300 μE/m^2/S of photosynthetically active radiation over a 14-hour photoperiod. The temperature was maintained at 23±2° C. during the day and 17±2° C. at night. The effects of the treatments were rated 25 days after preemergence treatment and 14 days after postemergence treatment. The plant response was visually rated in comparison to untreated controls using a scale of 0 to 100, with 0 representing no effect and 100 representing complete plant death. The results for the compounds tested preemergence are listed in Table H1, and the results for the compounds tested postemergence are listed in Table H2.

Compound: CCn1nc(C(C)(C)C)cc1C(=O)Nc1cc(C(=O)NCC2CC2)ccn1 [Compound 155]
- Plant response rating, Sprangletop, Bearded ([1]; 32 g ai/ha): 30
- Plant response rating, Sprangletop, Bearded ([1]; 64 g ai/ha): 30
- Plant response rating, Sprangletop, Bearded ([1]; 125 g ai/ha): 30
- Plant response rating, Sprangletop, Bearded ([1]; 250 g ai/ha): 40
- Plant response rating, Sprangletop, Bearded ([1]; 500 g ai/ha): 75
- Plant response rating, Rice, Water Seeded ([2]; 32 g ai/ha): 0
- Plant response rating, Rice, Water Seeded ([2]; 64 g ai/ha): 0
- Plant response rating, Rice, Water Seeded ([2]; 125 g ai/ha): 25
- Plant response rating, Rice, Water Seeded ([2]; 250 g ai/ha): 35
- Plant response rating, Rice, Water Seeded ([2]; 500 g ai/ha): 40
- Plant response rating, Rice, Transplanted ([3]; 32 g ai/ha): 0
- Plant response rating, Rice, Transplanted ([3]; 64 g ai/ha): 0
- Plant response rating, Rice, Transplanted ([3]; 125 g ai/ha): 20
- Plant response rating, Rice, Transplanted ([3]; 250 g ai/ha): 30
- Plant response rating, Rice, Transplanted ([3]; 500 g ai/ha): 30
- Plant response rating, Flatsedge, Rice ([4]; 32 g ai/ha): 0
- Plant response rating, Flatsedge, Rice ([4]; 64 g ai/ha): 0
- Plant response rating, Flatsedge, Rice ([4]; 125 g ai/ha): 30
- Plant response rating, Flatsedge, Rice ([4]; 250 g ai/ha): 60
- Plant response rating, Flatsedge, Rice ([4]; 500 g ai/ha): 70
- Plant response rating, Ducksalad ([5]; 32 g ai/ha): 0
- Plant response rating, Ducksalad ([5]; 64 g ai/ha): 0
- Plant response rating, Ducksalad ([5]; 125 g ai/ha): 0
- Plant response rating, Ducksalad ([5]; 250 g ai/ha): 60
- Plant response rating, Ducksalad ([5]; 500 g ai/ha): 60
- Plant response rating, Watergrass, Early ([6]; 32 g ai/ha): 0
- Plant response rating, Watergrass, Early ([6]; 64 g ai/ha): 0
- Plant response rating, Watergrass, Early ([6]; 125 g ai/ha): 25
- Plant response rating, Watergrass, Early ([6]; 250 g ai/ha): 35
- Plant response rating, Watergrass, Early ([6]; 500 g ai/ha): 70

Compound: CCn1nc(C(C)(C)C)cc1C(=O)Nc1cc(C(=O)N(C)C)ccn1 [Compound 156, 2-[[[3-(1,1-dimethylethyl)-1-ethyl-1H-pyrazol-5-yl]carbonyl]amino]-N,N-dimethyl-4-pyridinecarboxamide]
- Response of corn, With 1% naphthalic anhydride seed treatment ([7]; 62 g a.i./ha): 0
- Response of corn, Without naphthalic anhydride seed treatment ([7]; 62 g a.i./ha): 2
- Response of corn, With 1% naphthalic anhydride seed treatment ([7]; 125 g a.i./ha): 0
- Response of corn, Without naphthalic anhydride seed treatment ([7]; 125 g a.i./ha): 30
- Response of corn, With 1% naphthalic anhydride seed treatment ([7]; 250 g a.i./ha): 17
- Response of corn, Without naphthalic anhydride seed treatment ([7]; 250 g a.i./ha): 65
- Response of corn, With 1% naphthalic anhydride seed treatment ([7]; 500 g a.i./ha): 17
- Response of corn, Without naphthalic anhydride seed treatment ([7]; 500 g a.i./ha): 88
- Response of wheat, With 1% naphthalic anhydride seed treatment ([8]; 62 g a.i./ha): 7
- Response of wheat, Without naphthalic anhydride seed treatment ([8]; 62 g a.i./ha): 67
- Response of wheat, With 1% naphthalic anhydride seed treatment ([8]; 125 g a.i./ha): 70
- Response of wheat, Without naphthalic anhydride seed treatment ([8]; 125 g a.i./ha): 100
- Response of wheat, With 1% naphthalic anhydride seed treatment ([8]; 250 g a.i./ha): 85
- Response of wheat, Without naphthalic anhydride seed treatment ([8]; 250 g a.i./ha): 100
- Response of wheat, With 1% naphthalic anhydride seed treatment ([8]; 500 g a.i./ha): 99
- Response of wheat, Without naphthalic anhydride seed treatment ([8]; 500 g a.i./ha): 100
